Assay results reported in patent publication US10897903B2, “Method for controlling PPO resistant weeds” (BASF SE, priority 2016, dated 2021).

Legend:
[1] = tested on: w.2 AMATU Amaranthus tuberculatus, tall waterhemp, PPO resistant biotype 1 that does not contain the ΔG210 mutation; assay type: in vivo; details: summary of Example 3 table
[2] = tested on: w.3 AMATU Amaranthus tuberculatus, tall waterhemp, PPO resistant biotype 2 that does not contain the ΔG210 mutation; assay type: in vivo; details: summary of Example 3 table

SMILES: C#CCN1C(=O)C(F)(F)Oc2cc(F)c(-n3c(=O)n(C)c(=S)n(C)c3=O)cc21 [I.a.35]
- activity in words on PPO resistant weed w.2 [1]: very good activity
- activity in words on PPO resistant weed w.3 [2]: very good activity
